Test results reported in patent US5726319A, “Biphenyl substituted dipeptide analogs promote release of growth hormone” (Merck & Co., Inc., priority 1995, dated 1998).
Structures can show the parent of a compound that is named as a salt.

test system: rat pituitary cells; assay: growth hormone secretion in rat pituitary cell cultures (GH release, RIA); assay type: cell-based; conditions: 0.25 h; GH release from cultured rat anterior pituitary cells, 15 min incubation at 37° C., rat GH measured by double antibody RIA; read-out: ED50 (the source's name)
Experimental: The bioassay employed for the determination of growth hormone secretion in rat pituitary cell cultures has been previously described--Cheng, K.; Chan, W. W.-S; Barreto, A.; Convey, E. M.; Smith, R. G. Endocrinology 124: 2791-2798 (1989)--and is summarized here: The Wistar male rats (150-200 grams) were obtained from Charles River Laboratories (Wilmington, Mass). Rats were maintained at a constant temperature (25° C.) on a 14-hr light, 10-hr dark cycle. Rat chow and water were available ad libitum. The animals were sacrificed by decapitation and anterior lobes of the pituitary quickly removed. Rat pituitary cells were isolated from pituitaries by enzymatic digestion with 0.2% collagenase and 0.2% hyaluronidase in Hank's Balanced Salt Solution. For culture, the cells were suspended in culture medium and adjusted to 1.5×10^5 cells/ml, and 1.0 ml of this suspension was placed in each well of a 24-well tray (Costar, Cambridge, Mass.). Cells were maintained in a humidified 5% CO2 -95% air atmosphere at 37° C. for 3 to 4 days. The culture medium consisted of DMEM containing 0.37% NaHCO3, 10% horse serum, 2.5% fetal bovine serum, 1% non-essential amino acids, 1% glutamine, 1% nystatin, and 0.1% gentamycin. On the day of an experiment, cells were washed twice 11/2 hrs prior to and once more immediately before the start of the experiment with the above culture medium containing 25 mM HEPES, pH 7.4. GH release was initiated by adding 1 ml of fresh medium containing test agents to each well in quadruplicate. Incubation was carded out at 37° C. for 15 min. After incubation, medium was removed and centrifuged at 2,000×g for 15 min to remove any cellular material. The supernatant fluid was removed and assayed for GH content. Rat GH in culture medium was measured by a double antibody RIA procedure using materials obtained from Dr. A. F. Parlow (Harbor-UCLA medical Center, Torrance, Calif.) and expressed in terms of the standard rat GH RP-2. ED50 values for test compounds were computed by fitting a four-parameter logistic function to the dose-response curve. Least squares estimates of the four-parameter logistic function coefficients and their variances were derived using the iterative algorithm described by Bates and Watts.

Structure (SMILES)	EC50
CC(C)(N)CC(=O)N[C@H](CCc1ccccc1)C(=O)NCc1ccc(-c2ccccc2-c2nnn[nH]2)cc1 [Example 1, (R)-α-[(3-Amino-3-methyl-1-oxobutyl)amino]-N-[[2'-(1H-tetrazol-5-yl)[1,1'-biphenyl]-4-yl]methyl]benzene-butanamide, trifluoroacetate]	> 500 nM
CC(C)(N)CC(=O)N[C@H](Cc1ccccc1)C(=O)NCc1ccc(-c2ccccc2-c2nnn[nH]2)cc1 [Example 2, (R)-α-[(3-Amino-3-methyl-1-oxobutyl)amino]-N-[[2'-(1H-tetrazol-5-yl)[1,1'-biphenyl]-4-yl]methyl]benzene-propanamide, trifluoroacetate]	< 500 nM
CC(C)(N)CC(=O)N[C@H](Cc1c[nH]c2ccccc12)C(=O)NCc1ccc(-c2ccccc2-c2nnn[nH]2)cc1 [Example 3, (R)-α-[(3-Amino-3-methyl-1-oxobutyl)amino]-N-[[2'-(1H-tetrazol-5-yl)[1,1'-biphenyl]-4-yl]methyl]-1H-indole-3-propanamide, trifluoroacetate]	< 500 nM
CC[C@@H](NC(=O)CC(C)(C)N)C(=O)N(Cc1ccc(-c2ccccc2-c2nnn[nH]2)cc1)c1ccccc1 [Example 4, (R)-2-[(3-Amino-3-methyl-1-oxobutyl)amino]-N-phenyl-N-[[2'-(1H-tetrazol-5-yl)[1,1'-biphenyl]-4-yl]methyl]butanamide, trifluoroacetate]	> 500 nM
CC(C)(N)CC(=O)NCC(=O)NCc1ccc(-c2ccccc2-c2nnn[nH]2)cc1 [Example 5, 2-[(3-Amino-3-methyl-1-oxobutyl)amino]-N-[[2'-(1H-tetrazol-5-yl)[1,1'-biphenyl]-4-yl]methyl]acetamide, trifluoroacetate]	> 500 nM
CNC(=O)Nc1ccccc1-c1ccc(CNC(=O)[C@@H](Cc2c[nH]c3ccccc23)NC(=O)C(C)(C)N)cc1 [Example 6, (R)-α-[(2-Amino-2-methyl-1-oxopropyl)amino]-N-[[2'-[[(methylamino)carbonyl]amino][1,1'-biphenyl]-4-yl]methyl]-1H-indole-3-propanamide, trifluoroacetate]	> 500 nM
CN(Cc1ccc(-c2ccccc2-c2nnn[nH]2)cc1)C(=O)[C@@H](Cc1c[nH]c2ccccc12)NC(=O)C(C)(C)N [Example 13, (R)-α-[(2-Amino-2-methyl-1-oxopropyl)amino]-N-methyl-N-[[2'-(1H-tetrazol-5-yl)[1,1'-biphenyl]-4-yl]methyl]-1H-indole-3-propanamide, trifluoroacetate]	> 500 nM
CNC(=O)Nc1ccccc1-c1ccc(CNC(=O)[C@@H](Cc2c[nH]c3ccccc23)NC(=O)CC(C)(C)N)cc1 [Example 15, (R)-α-[(3-Amino-3-methyl-1-oxobutyl)amino]-N-[[2'-[[(methylamino)carbonyl]amino][1,1'-biphenyl]-4-yl]-methyl]-1H-indole-3-propanamide, trifluoroacetate]	> 500 nM
CC(C)(N)C(=O)N[C@H](Cc1c[nH]c2ccccc12)C(=O)NCc1ccc(-c2ccccc2NC(=O)NCCO)cc1 [Example 16, (R)-α-[(2-Amino-2-methyl-1-oxopropyl)amino]-N-[[2'-[[(2-hydroxyethylamino)carbonyl]amino][1,1'-biphenyl]-4-yl]-methyl]-1H-indole-3-propanamide, trifluoroacetate]	> 500 nM
CC(C)(N)CC(=O)N[C@H](Cc1c[nH]c2ccccc12)C(=O)NCc1ccc(-c2ccccc2NC(=O)NCCO)cc1 [Example 17, (R)-α-[(3-Amino-3-methyl-1-oxobutyl)amino]-N-[[2'-[[(2-hydroxyethylamino)carbonyl]amino][1,1'-biphenyl]-4-yl]-methyl]-1H-indole-3-propanamide, trifluoroacetate]	> 500 nM
CNC(=O)Nc1ccccc1-c1ccc(CNC(=O)[C@@H](COCc2ccccc2)NC(=O)C(C)(C)N)cc1 [Example 23, (R)-α-[(2-Amino-2-methyl-1-oxopropyl]amino]-N-[[2'-[[(methylamino)carbonyl]amino][1,1'-biphenyl]-4-yl]methyl]-3-[(phenylmethyl)oxy]propanamide, trifluoroacetate]	> 500 nM

same assay, conditions: GH release from cultured rat anterior pituitary cells, 15 min incubation at 37° C., rat GH measured by double antibody RIA; read-out: ED50 (the source's name)

Structure (SMILES)	EC50
CN(Cc1ccc(-c2ccccc2-c2nnn[nH]2)cc1)C(=O)[C@@H](CCc1ccccc1)NC(=O)C(C)(C)N.O=C(O)C(F)(F)F [Example 7a, (R)-α-[(2-Amino-2-methyl-1-oxypropyl)amino]-N-methyl-N-[[2'-(1H-tetrazol-5-yl)-[1,1'-biphenyl]-4-yl]methyl]benzenebutanamide trifluoroacetate]	< 500 nM
CN(Cc1ccc(-c2ccccc2C#N)cc1)C(=O)[C@@H](CCc1ccccc1)NC(=O)C(C)(C)N.O=C(O)C(F)(F)F [Example 7b, (R)-α-[(2-amino-2-methyl-1-oxypropyl)amino]-N-[[2'-cyano-[1,1'-biphenyl]-4-yl]methyl]-N-methyl-benzenebutanamide trifluoroacetate]	> 500 nM
CN(Cc1ccc(-c2ccccc2-c2nnn[nH]2)cc1)C(=O)[C@@H](CCc1ccccc1)NC(=O)CC(C)(C)N.O=C(O)C(F)(F)F [Example 8a, (R)-α-[(3-Amino-3-methyl-1-oxybutyl)amino]-N-methyl-N-[[2'-(1H-tetrazol-5-yl)-[1,1'-biphenyl]-4-yl]methyl]benzenebutanamide, trifluoroacetate]	> 500 nM
CNC(=O)NCc1ccccc1-c1ccc(CN(C)C(=O)[C@@H](CCc2ccccc2)NC(=O)C(C)(C)N)cc1.O=C(O)C(F)(F)F [Example 9]	< 500 nM
CNC(=O)NCc1ccccc1-c1ccc(CN(C)C(=O)[C@@H](CCc2ccccc2)NC(=O)CC(C)(C)N)cc1.O=C(O)C(F)(F)F [Example 10]	< 500 nM
CN(Cc1ccc(-c2ccccc2-c2nnn[nH]2)cc1)C(=O)[C@@H](CCc1ccccc1)NC(=O)CCC(C)(C)N.O=C(O)C(F)(F)F [Example 11, (R)-α-[(4-Amino-4-methyl-1-oxopentyl)amino]-N-methyl-N-[[2'-(1H-tetrazol-5-yl)[1,1'-biphenyl]-4-yl]methyl]benzenebutan amide, trifluoroacetate]	< 500 nM
CNC(=O)NCc1ccccc1-c1ccc(CN(C)C(=O)[C@@H](CCc2ccccc2)NC(=O)CCC(C)(C)N)cc1.O=C(O)C(F)(F)F [Example 12]	< 500 nM
CNC(=O)NCc1ccccc1-c1ccc(CN(C)C(=O)[C@@H](Cc2c[nH]c3ccccc23)NC(=O)C(C)(C)N)cc1.O=C(O)C(F)(F)F [Example 14]	< 500 nM
CCN(Cc1ccc(-c2ccccc2-c2nnn[nH]2)cc1)C(=O)[C@@H](CCc1ccccc1)NC(=O)C(C)(C)N.O=C(O)C(F)(F)F [Example 18, (R)-α-[(2-Amino-2-methyl-1-oxypropyl)amino]-N-ethyl-N-[[2'-(1H-tetrazol-5-yl)-[1,1'-biphenyl]-4-yl]methyl]benzenebutanamide, trifluoroacetate]	> 500 nM
CCN(Cc1ccc(-c2ccccc2-c2nnn[nH]2)cc1)C(=O)[C@@H](CCc1ccccc1)NC(=O)CC(C)(C)N.O=C(O)C(F)(F)F [Example 19, (R)-α-[(3-Amino-3-methyl-1-oxybutyl)amino]-N-ethyl-N-[[2'-(1H-tetrazol-5-yl)-[1,1'-biphenyl]-4-yl]methyl]benzenebutanamide, trifluoroacetate]	> 500 nM
CCN(Cc1ccc(-c2ccccc2CNC(=O)NC)cc1)C(=O)[C@@H](CCc1ccccc1)NC(=O)C(C)(C)N.O=C(O)C(F)(F)F [Example 20, (R)-α-[(2-Amino-2-methyl-1-oxypropyl)amino]-N-ethyl-N-[[(2'-[((methylamino)carbonyl)aminomethyl])-[1,1'-biphenyl]-4-yl]methyl]benzenebutanamide,trifluoroacetate]	< 500 nM
CCN(Cc1ccc(-c2ccccc2CNC(=O)NC)cc1)C(=O)[C@@H](CCc1ccccc1)NC(=O)CC(C)(C)N.O=C(O)C(F)(F)F [Example 21]	< 500 nM
CCCN(Cc1ccc(-c2ccccc2-c2nnn[nH]2)cc1)C(=O)[C@@H](CCc1ccccc1)NC(=O)C(C)(C)N.O=C(O)C(F)(F)F [Example 22, (R)-α-[(2-Amino-2-methyl-1-oxypropyl)amino]-N-[[2'-(1H-tetrazol-5-yl)-[1,1'-biphenyl]-4-yl]methyl]-N-(propyl)benzenebutanamide, trifluoroacetate]	< 500 nM
CNC(=O)Nc1ccccc1-c1ccc(CNC(=O)[C@@H](COCc2ccccc2)NC(=O)CC(C)(C)N)cc1.O=C(O)C(F)(F)F [Example 24]	> 500 nM
